Experiments:
Assay in all cases: Weeding effect in post-emergence stage
Type in all cases: in vivo
Settings in all cases: fresh weight control rate level
[1] = test system: Echinochloa crusgalli
Outline: (§1)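 Doses of 500, 250, 125, 60, 30, 15 and 7.5 g/ha, with methyl oleate synergist (1.5 liter/ha) and Tween 80 from acetone solution, applied by spray tower post-emergence (2–3 leaf stage). Weed control scored after 3 further greenhouse weeks, averaged over triplicates.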

[2] = test system: Alopecurus japonicus
Outline: as §1

[3] = test system: Digitaria sanguinalis
Outline: as §1

[4] = test system: Eleusine indica
Outline: as §1

[5] = test system: Abutilon theophrasti
Outline: as §1

[6] = test system: Setaria viridis
Outline: as §1

| SMILES | Weeding effect in post-emergence stage, Echinochloa crusgalli (level) ([1]; Dose 15 g/ha) | Weeding effect in post-emergence stage, Alopecurus japonicus (level) ([2]; Dose 15 g/ha) | Weeding effect in post-emergence stage, Digitaria sanguinalis (level) ([3]; Dose 15 g/ha) | Weeding effect in post-emergence stage, Eleusine indica (level) ([4]; Dose 15 g/ha) | Weeding effect in post-emergence stage, Abutilon theophrasti (level) ([5]; Dose 15 g/ha) | Weeding effect in post-emergence stage, Setaria viridis (level) ([6]; Dose 15 g/ha) | also measured |
| --- | --- | --- | --- | --- | --- | --- | --- |
| CC(C#N)COC(=O)[C@@H](C)O/N=C/c1cc(-n2c(=O)cc(C(F)(F)F)n(C)c2=O)c(F)cc1Cl (stereo partly drawn) [445(R)] | 5 (Level 5: growth control rate is above 85%) | 5 (Level 5: growth control rate is above 85%) | 5 (Level 5: growth control rate is above 85%) | 5 (Level 5: growth control rate is above 85%) | 5 (Level 5: growth control rate is above 85%) | 5 (Level 5: growth control rate is above 85%) |  |
| C[C@@H](O/N=C/c1cc(-n2c(=O)cc(C(F)(F)F)n(C)c2=O)c(F)cc1Cl)C(=O)OCCCC#N [446(R)] | 5 (Level 5: growth control rate is above 85%) | 5 (Level 5: growth control rate is above 85%) | 5 (Level 5: growth control rate is above 85%) | 5 (Level 5: growth control rate is above 85%) | 5 (Level 5: growth control rate is above 85%) | 5 (Level 5: growth control rate is above 85%) |  |
| C[C@@H](O/N=C/c1cc(-n2c(=O)cc(C(F)(F)F)n(C)c2=O)c(F)cc1Cl)C(=O)OCC1(C#N)CC1 [447(R)] | 5 (Level 5: growth control rate is above 85%) | 5 (Level 5: growth control rate is above 85%) | 5 (Level 5: growth control rate is above 85%) | 5 (Level 5: growth control rate is above 85%) | 5 (Level 5: growth control rate is above 85%) | 5 (Level 5: growth control rate is above 85%) |  |
| C[C@@H](O/N=C/c1cc(-n2c(=O)cc(C(F)(F)F)n(C)c2=O)c(F)cc1Cl)C(=O)OCCN(C)C [448(R)] | 5 (Level 5: growth control rate is above 85%) | 5 (Level 5: growth control rate is above 85%) | 5 (Level 5: growth control rate is above 85%) | 5 (Level 5: growth control rate is above 85%) | 5 (Level 5: growth control rate is above 85%) | 5 (Level 5: growth control rate is above 85%) |  |
| C/C(=N\OC(=O)[C@@H](C)O/N=C/c1cc(-n2c(=O)cc(C(F)(F)F)n(C)c2=O)c(F)cc1Cl)C(C)(C)C [449(R)] | 5 (Level 5: growth control rate is above 85%) | 5 (Level 5: growth control rate is above 85%) | 5 (Level 5: growth control rate is above 85%) | 5 (Level 5: growth control rate is above 85%) | 5 (Level 5: growth control rate is above 85%) | 5 (Level 5: growth control rate is above 85%) |  |
| C/C(=N\OC(=O)[C@@H](C)O/N=C/c1cc(-n2c(=O)cc(C(F)(F)F)n(C)c2=O)c(F)cc1Cl)C1CC1 [450(R)] | 5 (Level 5: growth control rate is above 85%) | 5 (Level 5: growth control rate is above 85%) | 5 (Level 5: growth control rate is above 85%) | 5 (Level 5: growth control rate is above 85%) | 5 (Level 5: growth control rate is above 85%) | 5 (Level 5: growth control rate is above 85%) |  |
| C/C(=N/C(=O)[C@@H](C)O/N=C/c1cc(-n2c(=O)cc(C(F)(F)F)n(C)c2=O)c(F)cc1Cl)c1ccccc1 [453(R)] |  |  |  |  |  |  | Weeding effect in post-emergence stage, Echinochloa crusgalli (level) ([1]; Dose 30 g/ha): 5 (Level 5: growth control rate is above 85%); Weeding effect in post-emergence stage, Alopecurus japonicus (level) ([2]; Dose 30 g/ha): 5 (Level 5: growth control rate is above 85%); Weeding effect in post-emergence stage, Digitaria sanguinalis (level) ([3]; Dose 30 g/ha): 5 (Level 5: growth control rate is above 85%); Weeding effect in post-emergence stage, Eleusine indica (level) ([4]; Dose 30 g/ha): 5 (Level 5: growth control rate is above 85%); Weeding effect in post-emergence stage, Abutilon theophrasti (level) ([5]; Dose 30 g/ha): 5 (Level 5: growth control rate is above 85%); Weeding effect in post-emergence stage, Setaria viridis (level) ([6]; Dose 30 g/ha): 5 (Level 5: growth control rate is above 85%) |
| C[C@@H](O/N=C/c1cc(-n2c(=O)cc(C(F)(F)F)n(C)c2=O)c(F)cc1Cl)C(=O)N1CCOCC1 [454(R)] |  |  |  |  |  |  | Weeding effect in post-emergence stage, Echinochloa crusgalli (level) ([1]; Dose 60 g/ha): 5 (Level 5: growth control rate is above 85%); Weeding effect in post-emergence stage, Alopecurus japonicus (level) ([2]; Dose 60 g/ha): 5 (Level 5: growth control rate is above 85%); Weeding effect in post-emergence stage, Digitaria sanguinalis (level) ([3]; Dose 60 g/ha): 5 (Level 5: growth control rate is above 85%); Weeding effect in post-emergence stage, Eleusine indica (level) ([4]; Dose 60 g/ha): 5 (Level 5: growth control rate is above 85%); Weeding effect in post-emergence stage, Abutilon theophrasti (level) ([5]; Dose 60 g/ha): 5 (Level 5: growth control rate is above 85%); Weeding effect in post-emergence stage, Setaria viridis (level) ([6]; Dose 60 g/ha): 5 (Level 5: growth control rate is above 85%) |
| COC(=O)[C@@H](CC(C)C)O/N=C/c1cc(-n2c(=O)cc(C(F)(F)F)n(C)c2=O)c(F)cc1Cl [455(R)] | 5 (Level 5: growth control rate is above 85%) | 5 (Level 5: growth control rate is above 85%) | 5 (Level 5: growth control rate is above 85%) | 5 (Level 5: growth control rate is above 85%) | 5 (Level 5: growth control rate is above 85%) | 5 (Level 5: growth control rate is above 85%) |  |
| COC(=O)[C@H](O/N=C/c1cc(-n2c(=O)cc(C(F)(F)F)n(C)c2=O)c(F)cc1Cl)C1CC1 [456(R)] |  |  |  |  |  |  | Weeding effect in post-emergence stage, Echinochloa crusgalli (level) ([1]; Dose 30 g/ha): 5 (Level 5: growth control rate is above 85%); Weeding effect in post-emergence stage, Alopecurus japonicus (level) ([2]; Dose 30 g/ha): 5 (Level 5: growth control rate is above 85%); Weeding effect in post-emergence stage, Digitaria sanguinalis (level) ([3]; Dose 30 g/ha): 5 (Level 5: growth control rate is above 85%); Weeding effect in post-emergence stage, Eleusine indica (level) ([4]; Dose 30 g/ha): 5 (Level 5: growth control rate is above 85%); Weeding effect in post-emergence stage, Abutilon theophrasti (level) ([5]; Dose 30 g/ha): 5 (Level 5: growth control rate is above 85%); Weeding effect in post-emergence stage, Setaria viridis (level) ([6]; Dose 30 g/ha): 5 (Level 5: growth control rate is above 85%) |
| COC(=O)[C@@H](CC1CC1)O/N=C/c1cc(-n2c(=O)cc(C(F)(F)F)n(C)c2=O)c(F)cc1Cl [462(R)] | 5 (Level 5: growth control rate is above 85%) | 5 (Level 5: growth control rate is above 85%) | 5 (Level 5: growth control rate is above 85%) | 5 (Level 5: growth control rate is above 85%) | 5 (Level 5: growth control rate is above 85%) | 5 (Level 5: growth control rate is above 85%) |  |
| COC(=O)[C@H](CF)O/N=C/c1cc(-n2c(=O)cc(C(F)(F)F)n(C)c2=O)c(F)cc1Cl [463(R)] | 5 (Level 5: growth control rate is above 85%) | 5 (Level 5: growth control rate is above 85%) | 5 (Level 5: growth control rate is above 85%) | 5 (Level 5: growth control rate is above 85%) | 5 (Level 5: growth control rate is above 85%) | 5 (Level 5: growth control rate is above 85%) |  |
| COC(=O)[C@@H](C)O/N=C/c1cc(-n2c(=O)c(C)c(C(F)(F)F)n(C)c2=O)c(F)cc1Cl [473(R)] |  |  |  |  |  |  | Weeding effect in post-emergence stage, Echinochloa crusgalli (level) ([1]; Dose 30 g/ha): 5 (Level 5: growth control rate is above 85%); Weeding effect in post-emergence stage, Alopecurus japonicus (level) ([2]; Dose 30 g/ha): 5 (Level 5: growth control rate is above 85%); Weeding effect in post-emergence stage, Digitaria sanguinalis (level) ([3]; Dose 30 g/ha): 5 (Level 5: growth control rate is above 85%); Weeding effect in post-emergence stage, Eleusine indica (level) ([4]; Dose 30 g/ha): 5 (Level 5: growth control rate is above 85%); Weeding effect in post-emergence stage, Abutilon theophrasti (level) ([5]; Dose 30 g/ha): 5 (Level 5: growth control rate is above 85%); Weeding effect in post-emergence stage, Setaria viridis (level) ([6]; Dose 30 g/ha): 5 (Level 5: growth control rate is above 85%) |
| C[C@@H](O/N=C/c1cc(-n2c(=O)cc(C(F)(F)F)n(C)c2=O)c(F)cc1Cl)C(=O)OCc1ccc(Cl)nc1 [495(R)] | 5 (Level 5: growth control rate is above 85%) | 5 (Level 5: growth control rate is above 85%) | 5 (Level 5: growth control rate is above 85%) | 5 (Level 5: growth control rate is above 85%) | 5 (Level 5: growth control rate is above 85%) | 5 (Level 5: growth control rate is above 85%) |  |
| C[C@@H](O/N=C/c1cc(-n2c(=O)cc(C(F)(F)F)n(C)c2=O)c(F)cc1Cl)C(=O)OCCC1OCCO1 [498(R)] | 5 (Level 5: growth control rate is above 85%) | 5 (Level 5: growth control rate is above 85%) | 5 (Level 5: growth control rate is above 85%) | 5 (Level 5: growth control rate is above 85%) | 5 (Level 5: growth control rate is above 85%) | 5 (Level 5: growth control rate is above 85%) |  |

Source: US20230111310A1, “CARBOXYLIC ACID DERIVATIVE-SUBSTITUTED IMINO ARYL COMPOUND, PREPARATION METHOD THEREFOR, HERBICIDAL COMPOSITION AND USE THEREOF” (Qingdao Kingagroot Chemical Compound Co., Ltd., priority 2020, published 2023)
